These are literature values, as cited in patent publication US11555049B2, “Method for separation and purification of n-acetylglucosamine” (JIANGSU HARVERS BIOTECH CO., LTD., priority 2020, dated 2023).

The structures appear in SMILES notation. In brackets after ≈: the same amount, converted by molar mass.

As for `CC(=O)N[C@H]1C(O)O[C@H](CO)[C@@H](O)[C@@H]1O` (some centres unmarked) [GlcNAc, N-acetyl-glucosamine], the solubility in water (0° C. water) is 140 mg/mL (≈ 633 mM). Besides, for the setting “organic solvents such as ethanol and propanol”, the “solubility in organic solvents” value was “insoluble”.
